Structures can show the parent of a compound that is named as a salt.

One series deals with ^59Fe-Ferritin. Kind of series: Biological effect of iron chelators over 59Fe-Ferritin/Rat (iron excretion ability, oral). Format: in vivo. The following applies: for Iron Excretion (%): rat model, taken orally (intragastric) 1 h after tail vein injection of 59Fe-Ferritin, test ends after 24 h, n=5; for iron excretion ability compared with CP20: in vivo rat test, administered in equimolar amounts. How it is done: According to methods described by Pippard's research group [Blood 58: 685-692], use ^59Fe to label ferritin in rat liver. Isolate ^59Fe-labelled ferritin by the method described by Bjorklid and Helgeland. In the preparation process, the rats were injected intraperitoneally with iron dextran, and intravenous administration of red blood cells, in order to keep the plasma transferrin saturated. This method ensures that most of ^59Fe (III) is absorbed by the liver, so ^59Fe-ferritin with high specific radioactivity can be obtained.
Performance of one shot intraperitoneal injection of 15mg iron dextran to 350∼400 g rats. After one week, jugular vein cannula is performed and then a 24 h's rest. Then the second day, each rat is given packed red cells (2 mL/100g). After 24 h, each rat is injected via the jugular vein cannula with 200 µCi ^59FeCl solution (Amersham Life Science). ^59FeCl3 (1mCi) is diluted 0.5 mL citrate (50mM, pH 2.5). Each experiment employs 5 rats, total radiation is 1mCi. 24 h after isotopically labeled injection, the livers were removed from rats.
Homogenization of liver is processed in 4 vol. (w/v) 0.25M acetate buffer. The homogenate was heated to 75°C with stirring for 10min. After cooling to 4°C, remove solid protein by centrifugation at 2500 g for 15 min. Treat the supernatant that contains tissue iron protein with half saturated (NH4)2SO4, while cooling in ice water for 30 min. The precipitate obtained by centrifugation at 3500 g at 4°C for 15 min, is dissolved in 0.25M pH=4.8 acetate buffer. Undissolved precipitate is removed through a Pd-10 column (Sephadex®, G-25M, Pharmacia Biotech). The resulting solution is centrifuged at 100,000 g at 4°C for 2 h. The final precipitate is dissolved in 0.05M pH=7.4 phosphate buffer, and stored at 4°C. The purity of ^59Fe-ferritin and normal Ferritin (Sigma Chemical Co.) are compared by electrophoresis. Iron concentration of ferritin is tested by colorimetry [Biochem Mol. Biol Int 35(3): […]].
Starved rat was injected ^59Fe-Ferritin via tail vein, in order to label rat liver cells with ^59Fe. After 1 h, each rat is given an iron chelator via intragastric injection. Blank group is administered with water by lavage. Each rat is placed in a metabolic cage, collect urine and feces. All rats are given free access to food after oral administration 1h later, and are free to drink water during the whole experiment. Test ends after 24 h of the tail vein injection of ^59Fe-Ferritin. All rats are killed by the cervical dislocation, then the liver and gastrointestinal system (including its content and feces) are collected for ^59Fe quantification. Calculation for iron excretion ability of iron chelators with following formula: (1) Iron Excretion(%)=^59Fe Activity(intestinal track & feces)/(^59Fe Activity(intestinal tracks & feces)+ ^59Fe Activity(liver))×100% Table 1 Iron excretion ability of taking chiral 3-hydroxypyridine-4-one orally on rat model (n=5).

A further series concerns mice. The series can be described thus: Acute toxicity test in mice (maximum oral dosage). As to conditions: suspension of maximum solubility in 0.5% CMC-Na, dose with no fatality. Format: in vivo. As for the experimental part: Prepare suspension of maximum solubility of each compound with 0.5% CMC-Na. Maximum oral dosage to mice is 0.4 mL/10g. Blank group took the same volume 0.5% CMC-Na solution orally (blank group and test group has 4 mice each, 2 female and 2 male). […] Monitor reaction of animal right after drug administration, including appearance, activities, mental states, appetites, urea/feces and its color, fur, nose, eye, mouth, if there are any abnormal secretions and death situation, give timely autopsy to dead animals. If any obvious pathology of organs is found, perform histopathological inspection. Every inspection should be performed every 30∼60 min in the 1st day, then check once a day, record animal toxicity and death distribution. Table 2. Maximum dosage of a few 3-hydroxypyridin-4-one derivatives to mice.

For series [1] the following is noted: reduced by glycosylation of the hydroxyl group at 3' position; cited from earlier work.

In the case of “3-Hydroxy-1-((2S)-1-hydroxy-3-methyl pentyl-2-)-2-ethyl pyridine-4(1H)-one hydrochloride [CN436]”, in the series on ^59Fe-Ferritin, the “Iron Excretion (%)” value is 5.8%.

Turning to “3-Hydroxy-1-((2S)-1-hydroxy-3-methyl pentyl-2-)-2-methyl pyridine-4(1H)-one hydrochloride [CN336]”, in the series with ^59Fe-Ferritin, the “Iron Excretion (%)” value is reported as 10.8%.

`Cc1c(O)c(=O)ccn1[C@H](CO)C(C)C` [CN116, (S)-3-Hydroxy-1-(1-hydroxy-3-methylbutyl-2-)-2-methyl pyridine-4(1H)-one]: in the series on ^59Fe-Ferritin, the “iron excretion ability compared with CP20” value was “several times better than CP20” and the “Iron Excretion (%)” value turned out to be 18.7%.

On to `Cc1c(O)c(=O)ccn1[C@@H](CO)Cc1ccccc1` [CN128, (R)-3-Hydroxy-1-(1-hydroxy-3-benzylpropyl-2-)2-methyl pyridine-4(1H)-one], for which, in the series on ^59Fe-Ferritin, the “iron excretion ability compared with CP20” value is given as “several times better than CP20” and the “Iron Excretion (%)” value came to 24.8%.

Take `CCc1c(O)c(=O)ccn1[C@@H](C)CO` [CN206, (S)-3-Hydroxy-1-(1-hydroxypropyl-2-)-2-ethylpyridine-4(1H)-one]: in the series with ^59Fe-Ferritin, the “iron excretion ability compared with CP20” value is recorded as “several times better than CP20” and the “Iron Excretion (%)” value was 16%. Moreover, in the series on mice, the “Maximum dosage: Dosage(g/kg)” value is recorded as 3.75 g/kg and the “Maximum dosage: Mole dosage(mmol/kg)” value is given as 19.0 mmol/kg.

As for `CCc1c(O)c(=O)ccn1[C@@H](CO)Cc1ccccc1` [CN228, (R)-3-Hydroxy-1-(1-hydroxy-3-phenylpropyl-2-)-2-ethyl pyridine-4(1H)-one], in the series on ^59Fe-Ferritin, the “iron excretion ability compared with CP20” value was “several times better than CP20” and the “Iron Excretion (%)” value is listed as 22.3%.

For `Cc1c(O)c(=O)ccn1[C@@H](CO)C(C)C` [CN318, (R)-3-Hydroxy-1-(1-hydroxy-3-methylbutyl-2-)-2-methyl pyridine-4(1H)-one hydrochloride], the “Iron Excretion (%)” value in the series on ^59Fe-Ferritin is listed as 8.0%.

Take `Cc1c(O)c(=O)ccn1[C@H](CO)Cc1ccccc1` [CN326, (S)-3-Hydroxy-1-(1-hydroxy-3-phenylpropyl-2-)-2-methyl pyridine-4(1H)-one hydrochloride]: the “Iron Excretion (%)” value in the series with ^59Fe-Ferritin was 12.8%.

Take `CCc1c(O)c(=O)ccn1[C@H](C)CO` [CN408, (R)-3-Hydroxy-1-(1-hydroxy-3-propyl-2-)-2-ethyl pyridine-4(1H)-one hydrochloride]: the “Iron Excretion (%)” value with ^59Fe-Ferritin is 10.6%.

As to `CCc1c(O)c(=O)ccn1[C@H](CO)C(C)C` [CN416, (S)-3-Hydroxy-1-(1-hydroxy-3-methylbutyl-2-)-2-ethyl pyridine-4(1H)-one hydrochloride], in the series on ^59Fe-Ferritin, the “Iron Excretion (%)” value was 7.9%.

Take `CCc1c(O)c(=O)ccn1[C@@H](CO)C(C)C` [CN418, (R)-3-Hydroxy-1-(1-hydroxy-3-methylbutyl-2-)-2-ethyl pyridine-4(1H)-one hydrochloride]: the “Iron Excretion (%)” value with ^59Fe-Ferritin is recorded as 10.6%.

For the compound `CCc1c(O)c(=O)ccn1[C@H](CO)Cc1ccccc1` [CN426, (S)-3-Hydroxy-1-(1-hydroxy-3-phenylpropyl-2-)-2-ethyl pyridine-4(1H)-one hydrochloride], the “Iron Excretion (%)” value with ^59Fe-Ferritin is recorded as 13.1%.

Turning to `Cc1c(O)c(=O)ccn1C` [CP20, reference compound], the half-life in series [1] was 2∼3 h. In the series with ^59Fe-Ferritin, the “Iron Excretion (%)” value stood at 11.4%. Also, in the series on mice, the “Maximum dosage: Dosage(g/kg)” value is reported as 1.50 g/kg and the “Maximum dosage: Mole dosage(mmol/kg)” value came to 10.7 mmol/kg.

In the case of “(R)-3-Hydroxy-1-(1-hydroxy-3-propyl-2-)-2-methyl pyridine-4(1H)-one hydrochloride [CN308]”, the “Iron Excretion (%)” value with ^59Fe-Ferritin is 6.5%.

For the compound “(S)-3-hydroxy-1-(1-hydroxy propyl-2-)-2-methyl pyridine-4(1H)-one hydrochloride [CN306]”, the “Iron Excretion (%)” value in the series on ^59Fe-Ferritin was found to be 11.9%.

Source of the values: patent EP2692724B1, “CHIRAL 3-HYDROXYPYRID-4-ONE DERIVATIVE, AND SYNTHESIS AND USE THEREOF” (Zhejiang University, priority 2011, dated 2012).
